Test results taken from paper PMC11025371, “Alcohols as inhibitors of ammonia oxidizing archaea and bacteria” (FEMS Microbiology Letters, 2023).
Converted amounts (≈) assume the structure as drawn. “Also recorded” adds a separate entry of the source. Read-outs that look alike come from different tables or passages of the source. Marks after values point to notes of the source that are not given here.

How the values were obtained:
‘Ca. N. franklandus’ C13 [1] = assay: Whole-cell activity assay, inhibition of ammonia oxidation (nitrite accumulation from 500 µM NH4Cl); type: cell-based, ‘Candidatus Nitrosocosmicus franklandus’ C13; settings: for Lowest fully inhibitory concentration (I) for ammonia oxidation / IC50: 37°C; for Lowest fully inhibitory concentration (I) for ammonia oxidation: full inhibition = lack of sustained nitrite accumulation; for IC50: nitrite accumulation over 1 h, read-out: Half-maximal inhibitory concentration (IC50) of ammonia oxidation
Method: (§1) Nitrosomonas europaea and ‘Ca. N. franklandus’ C13 cells were harvested at mid-exponential phase (∼800 µM NO2^− accumulated) by filtration onto 0.22 µm pore-size membrane filter (PES, Merck Millipore). Cells were then washed and resuspended in FWM salts (i.e. FWM without added NH4Cl and other medium components as described above) buffered with 10 mM HEPES buffer (pH 7). Cells were incubated at 28°C for N. europaea and 37°C for ‘Ca. N. franklandus’ C13 for ∼1 h until endogenous respiration ceased.
(§2) Although these alcohols were added at concentrations above their solubility for the consistency of the experimental design, the limit of solubility was considered when evaluating the results. Reactions were initiated by addition of 500 µM NH4Cl or 200 µM NH2OH. Vials containing N. europaea and ‘Ca. Nitrosocosmicus franklandus’ C13 cells were incubated at 28°C and 37°C, respectively. The activity of cultures was followed by monitoring nitrite accumulation over 1 h, measured in 15 min intervals using Griess reagent in a 96-well plate format as previously described (Lehtovirta-Morley et al. [2014]). The final cell concentration in the activity assays was ∼10^7 cells ml^−1 for both N. europaea and ‘Ca. N. franklandus’ C13, which equate to ∼1.2 and 5.55 µg protein ml^−1, respectively. Cell counts were performed as previously described (Oudova-Rivera et al. [2023]). Protein concentrations were determined using a Pierce bicinchoninic acid (BCA) protein assay kit (Thermo Scientific) according to the manufacturer instructions. One-way ANOVA with LSD post-hoc tests were performed using SPSS statistics software version 27 (IBM).
The reaction velocity of ammonia and hydroxylamine oxidation was determined by measuring the rate of nitrite accumulation over time (µM min^−1). […] The half-maximal inhibitory concentration (IC50) was calculated from the slope and y-axis intercept over the linear part of the curve following the formula: […]
(§3) Inhibition by alcohols was tested at a fixed substrate concentration of 500 µM NH4Cl or 200 µM hydroxylamine for both N. europaea and ‘Ca. N. franklandus’ C13. Ammonia and hydroxylamine concentrations were selected based on previously published Km values and activity assays (Suzuki et al. [1974], Martens-Habbena et al. [2009], Oudova-Rivera et al. [2023]). Fully inhibitory concentrations of alcohols were determined experimentally with a series of activity assays, gradually narrowing down the range of alcohol concentrations applied. Full inhibition was defined as a lack of sustained nitrite accumulation, where there was either no nitrite accumulation at all, or where a minor accumulation of nitrite was initially detected but ceased (potentially due to a delayed effect of the inhibitor).
(§4) Inhibition of ammonia oxidation was tested using whole-cell activity assays with the concentration of alcohols ranging from 2 to 100 mM and fixed substrate ammonia concentration of 500 µM NH4Cl. […] Because hydroxylamine, the product of ammonia oxidation, is a pathway intermediate downstream of AMO, any inhibitors specific to AMO should not interfere with hydroxylamine oxidation.

N. europaea [2] = assay: as above; type: cell-based, Nitrosomonas europaea; settings: 28°C; for Lowest fully inhibitory concentration (I) for ammonia oxidation: full inhibition = lack of sustained nitrite accumulation; for IC50: nitrite accumulation over 1 h, read-out: Half-maximal inhibitory concentration (IC50) of ammonia oxidation
Method: as §1
as §2, with “. Although” for “Although”
The reaction velocity of ammonia and hydroxylamine oxidation was determined by measuring the rate of nitrite accumulation over time (µM min^−1). The logarithm of the reaction velocity, calculated as a percentage of the non-inhibited control, was plotted against the inhibitor concentration resulting in a linear relationship (Figs. S1 and S2). The half-maximal inhibitory concentration (IC50) was calculated from the slope and y-axis intercept over the linear part of the curve following the formula: […]
as §3

‘Ca. N. franklandus’ C13 [3] = assay: Whole-cell activity assay with hydroxylamine as substrate (specificity of AMO inhibition); type: cell-based, ‘Candidatus Nitrosocosmicus franklandus’ C13; settings: 200 µM hydroxylamine; for Rate of nitrite accumulation from hydroxylamine oxidation compared to the non-inhibited control: alcohol at its lowest concentration fully inhibitory to ammonia oxidation; for Specificity of inhibition to AMO (effect on hydroxylamine oxidation): fully inhibitory alcohol concentration
Method: as §1, §2, §3, §4

N. europaea [4] = assay: as above; type: cell-based, Nitrosomonas europaea; settings: 200 µM hydroxylamine; for Rate of nitrite accumulation from hydroxylamine oxidation compared to the control: alcohol at its lowest concentration fully inhibitory to ammonia oxidation; for Specificity of inhibition to AMO (effect on hydroxylamine oxidation): fully inhibitory alcohol concentration
Method: as §1, §2, §3, §4

N. europaea [5] = system: N. europaea; set-up: method as in Hooper and Terry [1973]; settings: ref Hooper and Terry [1973]; cited from earlier work
physchem = settings: water

For CCCCCCO [Hexanol, 1-hexanol], the “Lowest fully inhibitory concentration (I) for ammonia oxidation” value (from here on “Lowest fully inhibitory concentration”) (‘Ca. N. franklandus’ C13 [1]) was 15 mM, the IC50 (‘Ca. N. franklandus’ C13 [1]) was 2.4 mM and the “Lowest fully inhibitory concentration” value (N. europaea [2]) was 20 mM. The IC50 (N. europaea [2]; Nitrosomonas europaea) was 2.2 mM, the “Rate of nitrite accumulation from hydroxylamine oxidation compared to the non-inhibited control” value (from here on “Rate … compared to the non-inhibited control”) (‘Ca. N. franklandus’ C13 [3]) was 13% ± 0.9% and the “Rate of nitrite accumulation from hydroxylamine oxidation compared to the control” value (shortened to “Rate … compared to the control”) (N. europaea [4]) was 18% ± 5.6%.

For CO [Methanol], the “Lowest fully inhibitory concentration” value (‘Ca. N. franklandus’ C13 [1]) was 8 mM, the IC50 (‘Ca. N. franklandus’ C13 [1]) was 0.19 mM and the “Lowest fully inhibitory concentration” value (N. europaea [2]) was 10 mM. The IC50 (N. europaea [2]) was 0.31 mM, the “Rate … compared to the non-inhibited control” value (‘Ca. N. franklandus’ C13 [3]) was “not affected” and the “Specificity of inhibition to AMO (effect on hydroxylamine oxidation)” value (from here on “Specificity of inhibition to AMO”) (‘Ca. N. franklandus’ C13 [3]) was “specific inhibitors of the AMO”. For the same compound, the “Specificity of inhibition to AMO” value (‘Ca. N. franklandus’ C13 [3]; listed as methanol) was “did not interfere with hydroxylamine oxidation” and the “Specificity of inhibition to AMO” value (N. europaea [4]) was “specific inhibitors of the AMO”.

For CC(C)O [2-Propanol, 2-propanol], the “Lowest fully inhibitory concentration” value (‘Ca. N. franklandus’ C13 [1]) was 40 mM, the IC50 (‘Ca. N. franklandus’ C13 [1]) was 26.8 mM and the “Lowest fully inhibitory concentration” value (N. europaea [2]) was 100 mM. The IC50 (N. europaea [2]) was 32.6 mM and the “Concentration giving maximal inhibition” value (N. europaea [5]) was 0.13 M.

With CCO [Ethanol, ethanol] the “Lowest fully inhibitory concentration” value (‘Ca. N. franklandus’ C13 [1]) was 80 mM, the IC50 (‘Ca. N. franklandus’ C13 [1]) was 7.2 mM and the “Lowest fully inhibitory concentration” value (N. europaea [2]) was 90 mM. For the same compound, the IC50 (N. europaea [2]) was 20.9 mM, the “Specificity of inhibition to AMO” value (‘Ca. N. franklandus’ C13 [3]) was “did not interfere with hydroxylamine oxidation; also recorded: specific inhibitor; also recorded: specific inhibitors of the AMO” and the “Specificity of inhibition to AMO” value (N. europaea [4]) was “specific inhibitor; also recorded: specific inhibitors of the AMO”.

With CCCO [1-Propanol, 1-propanol] the “Lowest fully inhibitory concentration” value (‘Ca. N. franklandus’ C13 [1]) was 20 mM, the IC50 (‘Ca. N. franklandus’ C13 [1]) was 6.2 mM and the “Lowest fully inhibitory concentration” value (N. europaea [2]) was 100 mM. The IC50 (N. europaea [2]) was 13.6 mM and the “Concentration giving maximal inhibition” value (N. europaea [5]) was 0.33 M.

For CCCCCCCO [Heptanol, 1-heptanol], the “Lowest fully inhibitory concentration” value (‘Ca. N. franklandus’ C13 [1]) was 17 mM, the IC50 (‘Ca. N. franklandus’ C13 [1]) was 3.6 mM and the “Lowest fully inhibitory concentration” value (N. europaea [2]) was 17 mM. For the same compound, the IC50 (N. europaea [2]; Nitrosomonas europaea) was 4.5 mM, the “Rate … compared to the non-inhibited control” value (‘Ca. N. franklandus’ C13 [3]) was 10% ± 0.5% and the “Rate … compared to the control” value (N. europaea [4]) was “no activity detected”. The solubility (physchem) was 17 mM (≈ 1980 µg/mL).

With CCCCCO [Pentanol, 1-pentanol] the “Lowest fully inhibitory concentration” value (‘Ca. N. franklandus’ C13 [1]) was 20 mM, the IC50 (‘Ca. N. franklandus’ C13 [1]) was 3.6 mM and the “Lowest fully inhibitory concentration” value (N. europaea [2]) was 100 mM. For the same compound, the IC50 (N. europaea [2]; Nitrosomonas europaea) was 5.3 mM, the “Rate … compared to the non-inhibited control” value (‘Ca. N. franklandus’ C13 [3]) was 53% ± 2.8% and the “Rate … compared to the control” value (N. europaea [4]) was 27% ± 2.6%.

In the case of CCCCCCCCO [Octanol, 1-octanol], the inhibition at 2000 µM (‘Ca. N. franklandus’ C13 [1]; 2 mM octanol (limit of solubility)) is reported as 39%, the “Lowest fully inhibitory concentration” value (‘Ca. N. franklandus’ C13 [1]) is reported as 10** mM and the “Lowest fully inhibitory concentration” value (‘Ca. N. franklandus’ C13 [1]; listed as octanol) is reported as 10 mM. For the same compound, the “Lowest fully inhibitory concentration” value (N. europaea [2]) was 20** mM, the “Rate … compared to the non-inhibited control” value (‘Ca. N. franklandus’ C13 [3]) was 33% ± 1.4% and the “Rate … compared to the control” value (N. europaea [4]) was “no activity detected”. The solubility (physchem) was 2 mM (≈ 260 µg/mL).

In the case of CCCCO [Butanol, 1-butanol], the “Lowest fully inhibitory concentration” value (‘Ca. N. franklandus’ C13 [1]) is reported as 40 mM, the IC50 (‘Ca. N. franklandus’ C13 [1]) is reported as 4 mM and the “Lowest fully inhibitory concentration” value (N. europaea [2]) is reported as 100 mM. For the same compound, the IC50 (N. europaea [2]) was 7.6 mM, the “Rate … compared to the non-inhibited control” value (‘Ca. N. franklandus’ C13 [3]) was 55% ±2.3% and the “Rate … compared to the control” value (N. europaea [4]) was 83% ± 1.8%.
